From ChEMBL document CHEMBL4354860, “Targeting the Regulatory Site of ER Aminopeptidase 1 Leads to the Discovery of a Natural Product Modulator of Antigen Presentation” (J Med Chem, 2020)

Biological target: Endoplasmic reticulum aminopeptidase 2 (Homo sapiens, UniProt Q6P179)
Assay: Activation of ERAP2 (unknown origin)-mediated Arg-AMC substrate hydrolysis after 60 mins by Rapidfire-MS analysis

Chain of Endoplasmic reticulum aminopeptidase 2 (Q6P179 whole entry): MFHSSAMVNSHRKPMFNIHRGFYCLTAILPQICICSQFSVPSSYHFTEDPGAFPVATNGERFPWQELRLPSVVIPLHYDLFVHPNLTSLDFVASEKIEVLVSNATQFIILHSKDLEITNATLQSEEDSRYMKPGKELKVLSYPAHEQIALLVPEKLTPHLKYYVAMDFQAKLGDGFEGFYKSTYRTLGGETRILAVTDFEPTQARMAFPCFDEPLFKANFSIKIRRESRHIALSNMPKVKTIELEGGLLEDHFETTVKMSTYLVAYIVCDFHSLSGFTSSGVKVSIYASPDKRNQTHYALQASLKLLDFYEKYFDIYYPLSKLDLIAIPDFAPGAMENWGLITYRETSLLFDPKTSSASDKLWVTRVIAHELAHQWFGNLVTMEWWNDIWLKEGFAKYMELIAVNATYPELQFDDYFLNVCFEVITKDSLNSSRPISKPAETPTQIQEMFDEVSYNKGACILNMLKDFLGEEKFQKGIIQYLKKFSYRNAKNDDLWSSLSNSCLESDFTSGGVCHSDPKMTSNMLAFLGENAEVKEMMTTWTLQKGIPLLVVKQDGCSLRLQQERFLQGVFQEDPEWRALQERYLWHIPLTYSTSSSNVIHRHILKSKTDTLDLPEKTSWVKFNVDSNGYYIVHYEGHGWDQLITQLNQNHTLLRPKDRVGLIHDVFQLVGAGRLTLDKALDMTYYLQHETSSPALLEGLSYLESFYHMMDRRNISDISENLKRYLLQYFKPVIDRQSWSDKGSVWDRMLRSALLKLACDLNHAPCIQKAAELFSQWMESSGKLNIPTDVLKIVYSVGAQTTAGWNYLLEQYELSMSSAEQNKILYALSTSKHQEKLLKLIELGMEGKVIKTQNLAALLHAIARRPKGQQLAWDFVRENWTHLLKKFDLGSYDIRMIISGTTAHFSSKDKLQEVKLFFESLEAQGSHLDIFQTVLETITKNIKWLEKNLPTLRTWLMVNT

IC50: > 158 µM
SMILES: C[C@@H]1C[C@H](O)[C@@]2(C)C(C(=O)O)=CCC[C@@H]2[C@@]1(C)CCc1ccoc1
